PMC9000575, “Solution Equilibrium Studies on Salicylidene Aminoguanidine Schiff Base Metal Complexes: Impact of the Hybridization with L-Proline on Stability, Redox Activity and Cytotoxicity” (Molecules, 2022)
Like-named read-outs stand apart in the source and are kept apart here.

Assays:
[1] = tested on: Colo-205 human colon adenocarcinoma cells; assay: MTT cytotoxicity test; format: cell-based; settings: Colo-205, 72 h
Method: (§1) All cell culture reagents were obtained from Sigma-Aldrich and plastic ware from Sarstedt (Nümbrecht, Germany). Human colon Colo-205 (chemo-sensitive) and Colo-320 (doxorubicin-resistant) adenocarcinoma and MRC-5 human embryonal lung fibroblast cell lines were purchased from LGC Promochem, Teddington, UK. The colon adenocarcinoma cells were cultured in Roswell Park Memorial Institute (RPMI) 1640 medium supplemented with 10% heat-inactivated fetal bovine serum, 2 mM L-glutamine, 1 mM sodium pyruvate and 100 mM HEPES. The MRC-5 cell line was cultured in Eagle’s Minimal Essential Medium (EMEM, Sigma-Aldrich, St. Louis, MO, USA) supplemented with a non-essential amino acid (NEAA) mixture (Sigma-Aldrich, St. Louis, MO, USA) a selection of vitamins, 10% heat-inactivated foetal bovine serum (FBS), 2 mM L-glutamine (Sigma-Aldrich, St. Louis, MO, USA), 1 mM Na-pyruvate (Sigma-Aldrich, St. Louis, MO, USA), nystatin (Sigma-Aldrich, St. Louis, MO, USA) and a penicillin-streptomycin mixture (Sigma-Aldrich, St. Louis, MO, USA) in concentrations of 100 U/L and 10 mg/L, respectively. The cells were incubated at 37 °C, in a 5% CO2, 95% air atmosphere. All cell lines were detached with Trypsin-Versene® (EDTA) solution for 5 min at 37 °C.
(§2) The tested compounds were dissolved in 90% (v/v) DMSO/H2O using 8 mM concentration, […] in the final samples the DMSO content was always lower than 1%. Then stock solutions were diluted in complete culture medium, and two-fold serial dilutions of compounds were prepared in 100 μL of the medium, horizontally. The semi-adherent colon adenocarcinoma cells were treated with Trypsin-Versene (EDTA) solution. They were adjusted to a density of 1 × 10^4 cells in 100 μL of RPMI 1640 or EMEM medium and were added to each well, with the exception of the medium control wells. The final volume of the wells containing compounds and cells was 200 μL. The plates containing Colo-205, Colo-320 or MRC-5 cells were incubated at 37 °C for 72 h; at the end of the incubation period, 20 μL of MTT solution (from a stock solution of 5 mg/mL) were added to each well. After incubation at 37 °C for 4 h, 100 μL of SDS solution (10% in 0.01 M HCI) were added to each well, and the plates were further incubated at 37 °C overnight. Cell growth was determined by measuring the optical density (OD) at 540/630 nm with a Multiskan EX plate reader (Thermo Labsystems, Cheshire, WA, USA). Inhibition of the cell growth (expressed as IC50: inhibitory concentration that reduces by 50% the growth of the cells exposed to the tested compounds) was determined from the sigmoid curve where 100 − ((ODsample − ODmedium control)/(ODcell control − ODmedium control)) × 100 values were plotted against the logarithm of compound concentrations. Curves were fitted by GraphPad Prism software (2021, Graphpad Software, San Diego, CA, USA) using the sigmoidal dose–response model (comparing variable and fixed slopes). The IC50 values were obtained from at least three independent experiments.

[2] = tested on: Colo-320 (doxorubicin-resistant) human colon adenocarcinoma cells; assay: MTT cytotoxicity test; format: cell-based; settings: Colo-320, 72 h
Method: as §1, §2

[3] = tested on: MRC-5 human embryonal lung fibroblast cells; assay: MTT cytotoxicity test; format: cell-based; settings: MRC-5, 72 h
Method: as §1, §2

[4] = literature pKa values of analogous (thio)semicarbazones; format: physicochemical; settings: from literature pKa values (refs 22, 23)
[5] = pH 7.4; cited from earlier work
[6] = 30% (v/v) DMSO/H2O; cited from earlier work
[7] = stability constants of Fe(II) complexes by pH-potentiometry; format: physicochemical; settings: calculated at pH 7.4, cFe = 1 μM, cligand = 10 μM, from overall stability constants reported in Refs. 22, 27, 34
[8] = stability constants of Fe(III) complexes by pH-potentiometry; format: physicochemical; settings: calculated at pH 7.4, cFe = 1 μM, cligand = 10 μM, from overall stability constants reported in Refs. 22, 27, 34
[9] = cited from earlier work
[10] = tested on: Colo-205 human colon adenocarcinoma cells; parameters: method as in PMID 35287037; settings: Colo-205, 72 h; cited from earlier work
[11] = tested on: Colo-320 (doxorubicin-resistant) human colon adenocarcinoma cells; parameters: method as in PMID 35287037; settings: Colo-320, 72 h; cited from earlier work
[12] = tested on: MRC-5 human embryonal lung fibroblast cells; parameters: method as in PMID 35287037; settings: MRC-5, 72 h; cited from earlier work

SMILES | IC50 [1] | IC50 [2] | IC50 [3] | fraction present in neutral form at pH 7.4 [4] | logD7.4 [5] | pK1 [6] | pK2 [6] | pFe(II) (−log[Fe(II)]) [7] | pFe(III)* (−logΣ[Fe(III)i(OH)j]) [8] | E1/2 of the Fe(III)/Fe(II) redox couple of the iron complexes ([9]; STSC complexes, 'as it was found', no reference given) | IC50 [10] | IC50 [11] | IC50 [12] | E1/2 of the Fe(III)/Fe(II) redox couple of the iron complexes [9]
[Cl][Cu][Cl] [CuCl2, reference compound] | 44.1 ± 0.4 µM | 48.7 ± 0.4 µM | 43.9 ± 0.3 µM |  |  |  |  |  |  |  |  |  |  | 
NC(=O)N/N=C/c1ccccc1O [SSC, salicylaldehyde semicarbazone] |  |  |  | 100% | +0.94 | 9.32 | > 12.8 |  |  |  |  |  |  | 
NC(=S)N/N=C/c1ccccc1O [STSC, salicylaldehyde TSC] |  |  |  | 97% | +1.59 | 8.89 | 12.59 | 8.3 | 8.4 | −0.14 V vs. NHE | 69.7 ± 1.9 µM | 52.2 ± 6.8 µM | 88 ± 19 µM | 
NC(=S)NN=Cc1ncccc1N [Triapine, 3-aminopyridine-2-carbaldehyde thiosemicarbazone] |  |  |  |  |  |  |  | 11.6 | 7.3 |  | 3.28 ± 0.63 µM | 2.17 ± 0.15 µM | 31.4 ± 9.2 µM | +0.08 V vs. NHE
